Measured values from patent publication US20100137448A1, “Methods for Treating Neuropsychiatric Disorders with NMDA Receptor Antagonists” (priority 2000, published 2010).
Entries after “also recorded” stand apart in the source; their conditions may differ.

Assays:
[1] = tested on: precontracted aortic vessel; test: Relaxation of norepinephrine-precontracted rabbit aortic rings; format: tissue-based
Method: New Zealand white female rabbits weighing 3-4 kilograms were anesthetized with sodium pentobarbital, 13 milligram per kilogram. Descending thoracic aorta were isolated, the vessels were cleaned of adherent tissue and the endothelium was removed by a gentle rubbing with a cotton-tipped applicator inserted into the lumen. The vessels were cut into 5 millimeter rings and mounted on stirrups connected to transducers by which changes in isometric tension were recorded (model TO3C, Grass Instruments, Quincy, Mass.). Vessel rings were suspended in 20 mL of oxygenated Krebs buffer at 37° C. and sustained contractions were induced with 1 μM norepinephrine. The vessels were then relaxed in a dose-dependent fashion ([…] through 10^−5 M compound 8). In some experiments vessels were pretreated with methylene blue or […] hemoglobin to block relaxations.
Relaxations were attenuated by methylene blue (c) and hemoglobin (d) indicating an NO-related effect. (b) is a control with solvent.

C57B1/6 mice = test: Murine cerebral ischemia model, intraluminal suture MCA occlusion; format: in vivo
Method: The intraluminal suture technique was used to produce a 2 hr occlusion of the middle cerebral artery (MCA), following the same protocol for focal cerebral ischemial reperfusion as published previously (Chen, et al., Neuroscience (1998) 86: 1121). However, here C57B1/6 mice were used instead of rats. […] To produce a neuroprotective concentration of compound 7, the loading dose was 100 mg/kg i.p. and the maintenance dose was 40 mg/kg i.p. every 12 hr. In each case, drug or vehicle control was initially administered 2 hr after MCA occlusion. […] The animals were sacrificed and analyzed with TTC staining 48 hr after MCA occlusion (Chen, et al., Neuroscience (1998) 86: 1121).

cerebrocortical neurons = test: NMDA-induced apoptosis of cerebrocortical neurons (in vitro protection); format: cell-based
Method: Cerebrocortical cultures were exposed to 300 μM NMDA for 20 mm with or without various concentrations of compound 7. The next day cultures were analyzed by neuronal apoptosis as described in Example 19.
Under these conditions (300 μM NMDA exposure for 20 mm, followed by washout), neuronal apoptosis was monitored 24 hours later by propidium iodide uptake and morphology of fixed, permeabilized neurons, among other techniques (Bonfoco et al., Proc Natl Acad Sci USA (1995) 92: 7162). NMDA induced about 20% apoptosis of neurons, and that 25-100 μM compound 7 afforded protection from this damage (P<0.001, FIG. 5).

human albumin = human albumin (Homo sapiens, UniProt P02768); conditions: cited from earlier work
[2] = loading dose 20 mg/kg i.p., maintenance 1 mg/kg/12 hours; cited from earlier work
[3] = humans, 5 to 30 mg/day; cited from earlier work
[4] = cited from earlier work

Sequence of human albumin (P02768 25-609): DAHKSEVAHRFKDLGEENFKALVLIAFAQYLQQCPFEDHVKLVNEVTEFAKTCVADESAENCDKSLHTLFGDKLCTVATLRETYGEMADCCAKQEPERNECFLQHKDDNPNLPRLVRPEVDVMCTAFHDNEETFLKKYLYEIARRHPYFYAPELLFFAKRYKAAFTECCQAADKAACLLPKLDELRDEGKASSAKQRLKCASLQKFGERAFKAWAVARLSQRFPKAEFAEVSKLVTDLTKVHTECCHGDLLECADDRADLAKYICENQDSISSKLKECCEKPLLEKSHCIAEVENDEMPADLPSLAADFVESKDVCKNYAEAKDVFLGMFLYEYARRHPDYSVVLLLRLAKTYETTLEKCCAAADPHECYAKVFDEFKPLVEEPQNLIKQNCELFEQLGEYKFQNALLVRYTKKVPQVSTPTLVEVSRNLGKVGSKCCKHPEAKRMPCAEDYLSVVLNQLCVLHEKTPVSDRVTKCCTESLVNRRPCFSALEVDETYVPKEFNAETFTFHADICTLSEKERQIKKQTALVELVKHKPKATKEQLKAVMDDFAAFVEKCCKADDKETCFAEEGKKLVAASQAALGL

## CC12CC3(C)CC(O)(C1)CC(N(Cc1ccccc1)Cc1ccccc1)(C2)C3 [Compound 10, 1,1-dibenzylamino-3,5-dimethyl-7-hydroxy-adamantane]
[1]; FIG. 8
  effect on blood vessel, compared with solvent (EtOH): either no effect or slight contractions of blood vessels; also recorded: either no effect or slight blood vessel contractions

## CC(=O)NC12CC3(C)CC(C)(CC(CO)(C3)C1)C2 [Compound 17, 1-Acetamido-3,5-dimethyl-7-hydroxymethyladamantane]
other
  melting point: 152 to 153 °C

## CC(=O)NC12CC3(C)CC(C)(C1)CC(O[N+](=O)[O-])(C3)C2 [Compound 8, 1-acetamido-3,5-dimetbyl-7-nitrateadamantane]
[1]; endothelium-denuded rings, 1 μM norepinephrine
  effect on precontracted aortic vessel: relaxes a precontracted aortic vessel in a dose-dependent fashion
[1]; vessels pretreated with hemoglobin
  relaxations after pretreatment with hemoglobin: attenuated
[1]; vessels pretreated with methylene blue
  relaxations after pretreatment with methylene blue: attenuated

## 1-amino-3,5-dimethyl-7-hydroxyadamantane hydrochloride [Compound 9]
[1]; FIG. 8, hydrochloride
  effect on blood vessel, compared with solvent (EtOH): either no effect or slight blood vessel contractions
[1]; FIG. 8, listed as compound 9, hydrochloride
  effect on blood vessel, compared with solvent (EtOH): either no effect or slight contractions of blood vessels

## CC(=O)NC12CC3(C)CC(C)(CC(O)(C3)C1)C2 [Compound 3, 1-acetamido-3,5-dimethyl-7-hydroxyadamantane]
other
  melting point: 194 to 195 °C

## CC12CC3(C)CC(N)(C1)CC(O[N+](=O)[O-])(C2)C3.Cl [Compound 7, 1-amino-3,5-dimethyl-7-nitrateadamantane hydrochloride]
C57B1/6 mice; 2 hr MCA occlusion, loading 100 mg/kg i.p., maintenance 40 mg/kg i.p. every 12 hr, first dose 2 hr after occlusion, TTC staining 48 hr, n=3, P<0.03 from control, P<0.05 from memantine
  cerebral damage after stroke: effective in decreasing cerebral damage after stroke
C57B1/6 mice; memantine 20 mg/kg i.p. loading, 1 mg/kg/12 hours maintenance, compound 7 100 mg/kg i.p. loading, 40 mg/kg i.p. every 12 hr
  neuroprotection compared with memantine: more neuroprotective than memantine
Cerebrocortical neurons; 300 μM NMDA 20 mm, washout, apoptosis monitored 24 hours later, NMDA induced about 20% apoptosis, P<0.001
  concentration affording protection from NMDA-induced apoptosis: 25 to 100 µM
Cerebrocortical neurons; 300 μM NMDA for 20 mm, analysed next day, various concentrations, dose-dependent, P<0.001, n=3 cultures
  NMDA-induced neuronal apoptosis: largely prevented
[1]; 10 μM concentration, FIG. 8
  effect on blood vessel at 10 μM: modest relaxation

## CC12CC3CC(C)(C1)CC(N)(C3)C2 [memantine, 1-amino-3,5-dimethyladamantane]
Human albumin
  bound to human albumin: < 10%
[2]
  parenchymal levels in the brain: 1 to 10 µM
[3]
  mean CSF/serum ratio: 0.52
[4]; biphasic elimination, first phase
  average half-life, first therapeutically relevant phase: 4 to 9 h
[4]; biphasic elimination, second phase
  average half-life, second phase: 40 to 65 h
[4]; in vivo
  elimination by the renal route: 75%-90%
  fecal excretion: 10%-25%
